# Experimental data: patent US8962630B2, “Pyrrolopyrimidine compounds and their uses” (Novartis AG, priority 2008, dated 2015)
# pIC50: −log10 of the molar value. Read-outs that look alike come from different tables or passages of the source.
# How the values were obtained:
# Type in all cases: biochemical
# [1] = target: CDK2/cyclin A (Homo sapiens (Human), UniProt P24941); assay: CDK2/Cyclin A enzymatic activity assay (IMAP-FP); conditions: for pIC50: Table 2, read-out: CDK2
# [2] = target: CDK1/cyclin B (Homo sapiens (Human), UniProt P06493); assay: CDK1/Cyclin B enzymatic activity assay (IMAP-FP); conditions: for pIC50: Table 2, 20 μM ATP, read-out: CDK1
# Sequence of CDK1/cyclin B (P06493 whole entry, species assumed): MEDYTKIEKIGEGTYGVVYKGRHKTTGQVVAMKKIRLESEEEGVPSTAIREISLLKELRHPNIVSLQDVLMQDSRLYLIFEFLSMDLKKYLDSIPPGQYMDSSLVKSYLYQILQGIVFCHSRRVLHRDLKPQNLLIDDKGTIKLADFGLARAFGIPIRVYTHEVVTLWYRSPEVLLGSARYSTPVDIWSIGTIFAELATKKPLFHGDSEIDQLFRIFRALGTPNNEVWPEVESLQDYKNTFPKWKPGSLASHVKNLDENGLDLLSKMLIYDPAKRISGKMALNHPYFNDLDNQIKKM
# Sequence of CDK1/cyclin B (P14635 whole entry partner, species assumed): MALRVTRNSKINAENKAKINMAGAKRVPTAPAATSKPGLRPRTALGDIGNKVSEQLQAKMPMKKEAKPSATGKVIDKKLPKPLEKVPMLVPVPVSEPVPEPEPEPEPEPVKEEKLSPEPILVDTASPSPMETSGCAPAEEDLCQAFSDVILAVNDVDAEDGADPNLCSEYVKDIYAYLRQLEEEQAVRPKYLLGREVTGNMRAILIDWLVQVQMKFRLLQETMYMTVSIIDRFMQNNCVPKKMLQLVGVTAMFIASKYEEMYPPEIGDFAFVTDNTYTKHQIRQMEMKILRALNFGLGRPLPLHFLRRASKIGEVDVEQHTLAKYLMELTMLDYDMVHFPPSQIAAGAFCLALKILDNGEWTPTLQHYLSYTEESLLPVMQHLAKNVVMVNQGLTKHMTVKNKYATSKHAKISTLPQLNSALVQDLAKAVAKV
# From the text: A 384-well microtiter IMAP-FPT™ (Molecular Devices Trade Mark Technology) endpoint assay was used for CDK1/cyclin B kinase activity measurements. The same assay was used for IC50 determination of small molecule inhibitors.
# [3] = target: CDK4/cyclin D1 (Homo sapiens (Human), UniProt P11802); assay: CDK4/Cyclin D1 enzymatic activity assay (Lance TR-FRET); conditions: for pIC50: Table 2, 3 μM ATP, read-out: CDK4
# Sequence of CDK4/cyclin D1 (P11802 whole entry): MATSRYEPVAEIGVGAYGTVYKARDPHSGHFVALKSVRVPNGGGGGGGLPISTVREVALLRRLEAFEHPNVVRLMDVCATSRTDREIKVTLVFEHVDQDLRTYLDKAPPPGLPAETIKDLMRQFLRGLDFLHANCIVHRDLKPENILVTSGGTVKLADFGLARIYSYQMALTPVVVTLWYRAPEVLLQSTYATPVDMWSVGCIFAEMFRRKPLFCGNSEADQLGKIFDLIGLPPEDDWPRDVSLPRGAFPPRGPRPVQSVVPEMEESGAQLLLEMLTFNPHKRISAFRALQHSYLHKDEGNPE
# Sequence of CDK4/cyclin D1 (P24385 whole entry partner): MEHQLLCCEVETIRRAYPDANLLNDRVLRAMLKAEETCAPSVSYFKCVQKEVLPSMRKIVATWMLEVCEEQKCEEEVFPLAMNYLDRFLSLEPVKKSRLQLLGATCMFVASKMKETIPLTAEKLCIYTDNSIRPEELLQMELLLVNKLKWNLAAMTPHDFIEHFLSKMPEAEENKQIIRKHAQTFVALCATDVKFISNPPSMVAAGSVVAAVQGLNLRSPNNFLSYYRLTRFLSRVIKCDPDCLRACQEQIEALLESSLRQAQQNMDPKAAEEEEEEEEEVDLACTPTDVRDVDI
# Protocol: A 384-well microtiter Lance TR-FRET (time-resolved-fluorescence energy transfer) endpoint assay was used for CDK4/cyclin D1 kinase activity measurements. The same assay was used for IC50 determination of small molecule inhibitors. In general, the kinase reactions were carried out in 30 μL volumes in the reaction solution containing the following: 2 uL compound (in […]), 18 uL CDK4/cyclin D1 in Assay Buffer (50 mM HEPES, pH 7.5, 5 mM MgCl2, 2 mM MnCl2, 1 mM DTT, 0.05% BSA, 0.02% Tween-20), 10 uL of the mixture of pRb152 and ATP. The final reaction mixture contains compound (inhibitor) with the concentration varying from 0.005-10 μM, 2% DMSO, 0.3 nM CDK4/cyclin D1, 175 nM pRb152, and 3 μM ATP (Amersham Pharmacia, Cat. No. 27-2056-01). All reactions were run at room temperature in 384-well white flat-bottom OptiPlates (Perkin Elmer, Cat. No. 6007290) for 60 min then were quenched by the addition of 10 μL of 120 mM EDTA. The signals were captured by the addition of 40 μL of the Detection Solution containing the following: Detection Buffer (50 mM HEPES, pH 7.5, 30 mM EDTA, 0.1% Triton x-100, 0.05% BSA), 70 ng/mL anti-phospho-pRb(S780) (Cell Signaling Technology, Cat. No. 9307S), 1 nM Lance Eu-W1024-Rabbit anti-IgG (Perkin Elmer, Cat. No. AD0082), and 20 nM SureLight™ Allophycocyanin-Streptavidin (Perkin Elmer, Cat. No. CR130-100). The resulted solutions were incubated at room temperature for 2 hours before read on the Evision Multilabel Reader (Perkin Elmer, Envision 2102-0010).
# CDk4/cyclin D1 recombinant protein used in the enzymatic activity assay was prepared by coexpressing pDEST10-CDK4 (N-terminal His6) and pFastBacDual-GST-hCyclinDl viruses in Sf21 cells.
Compound,pIC50 [1],pIC50 [2],pIC50 [3],"IC50 ([1]; Table 4, read-out: IC50 (μM) CDK2) [µM]","IC50 ([2]; Table 4, read-out: IC50 (μM) CDK1) [µM]","IC50 ([3]; Table 4, read-out: IC50 (μM) CDK4) [µM]"
"C[C@@H]1CN(c2ccc(Nc3ncc4cc(C(=O)N(C)C)n(C5CCCC5)c4n3)nc2)CCN1CCO [Example 81, 7-Cyclopentyl-2-{5-[(R)-4-(2-hydroxy-ethyl)-3-methyl-piperazin-1-yl]-pyridin-2-ylamino}-7H-pyrrolo[2,3-d]pyrimidine-6-carboxylic acid dimethylamide]",< 4.82,< 4.82,7.00 to 8.00,–,–,–
"CC1CN(c2ccc(Nc3ncc4cc(C(=O)N(C)C)n(C5CCCC5)c4n3)nc2)CC(C)N1 (stereo not drawn) [Example 24, 7-Cyclopentyl-2-[5-(3,5-dimethyl-piperazin-1-yl)-pyridin-2-ylamino]-7H-pyrrolo[2,3-d]pyrimidine-6-carboxylic acid dimethylamide]",< 4.82,< 4.82,7.00 to 8.00,–,–,–
"CC(=O)N1CCN(Cc2ccc(Nc3ncc4cc(C(=O)N(C)C)n(C5CCCC5)c4n3)nc2)CC1 [Example 61, 2-[5-(4-Acetyl-piperazin-1-ylmethyl)-pyridin-2-ylamino]-7-cyclopentyl-7H-pyrrolo[2,3-d]pyrimidine-6-carboxylic acid dimethylamide]",< 4.82,< 4.82,6.00 to 7.00,–,–,–
"CN(C)C(=O)c1cc2cnc(Nc3ccc(N(C)CCO)cn3)nc2n1C1CCCC1 [Example 83, 7-Cyclopentyl-2-{5-[(2-hydroxy-ethyl)-methyl-amino]-pyridin-2-ylamino}-7H-pyrrolo[2,3-d]pyrimidine-6-carboxylic acid dimethylamide]",< 4.82,< 4.82,6.00 to 7.00,–,–,–
"CN(C)C(=O)c1cc2cnc(Nc3ccc(N4CCN(CCO)CC4)cn3)nc2n1C1CCCC1 [Example 26, 7-Cyclopentyl-2-{5-[4-(2-hydroxy-ethyl)-piperazin-1-yl]-pyridin-2-ylamino}-7H-pyrrolo[2,3-d]pyrimidine-6-carboxylic acid dimethylamide]",< 4.82,< 4.82,7.00 to 8.00,> 15,> 15,0.026
"COCCN1CCN(c2ccc(Nc3ncc4cc(C(=O)N(C)C)n(C5CCCC5)c4n3)nc2)CC1 [Example 14, 7-Cyclopentyl-2-{5-[4-(2-methoxy-ethyl)-piperazin-1-yl]-pyridin-2-ylamino}-7H-pyrrolo[2,3-d]pyrimidine-6-carboxylic acid dimethylamide]",< 4.82,< 4.82,7.00 to 8.00,–,–,–
"CN(C)C(=O)c1cc2cnc(Nc3ccc(N4CCN(C[C@@H](O)CO)CC4)cn3)nc2n1C1CCCC1 [Example 46, 7-Cyclopentyl-2-{5-[4-((R)-2,3-dihydroxy-propyl)-piperazin-1-yl]-pyridin-2-ylamino}-7H-pyrrolo[2,3-d]pyrimidine-6-carboxylic acid dimethylamide]",< 4.82,< 4.82,7.00 to 8.00,–,–,–
"CN(C)C(=O)c1cc2cnc(Nc3ccc(N4CCN(CC(F)(F)F)CC4)cn3)nc2n1C1CCCC1 [Example 25, 7-Cyclopentyl-2-{5-[4-(2,2,2-trifluoro-ethyl)-piperazin-1-yl]-pyridin-2-ylamino}-7H-pyrrolo[2,3-d]pyrimidine-6-carboxylic acid dimethylamide]",< 4.82,< 4.82,7.00 to 8.00,–,–,–
"CN(C)C(=O)c1cc2cnc(Nc3ccc(N4CCN(CCCO)CC4)cn3)nc2n1C1CCCC1 [Example 21, 7-Cyclopentyl-2-{5-[4-(3-hydroxy-propyl)-piperazin-1-yl]-pyridin-2-ylamino}-7H-pyrrolo[2,3-d]pyrimidine-6-carboxylic acid dimethylamide]",< 4.82,< 4.82,8.00 to 9.00,–,–,–
"CN(C)C(=O)c1cc2cnc(Nc3ccc(N4CCN(CCF)CC4)cn3)nc2n1C1CCCC1 [Example 86, 7-Cyclopentyl-2-{5-[4-(2-fluoro-ethyl)-piperazin-1-yl]-pyridin-2-ylamino}-7H-pyrrolo[2,3-d]pyrimidine-6-carboxylic acid dimethylamide]",< 4.82,< 4.82,7.00 to 8.00,–,–,–
"CN(C)C(=O)c1cc2cnc(Nc3ccc(CN4CCN(S(C)(=O)=O)CC4)cn3)nc2n1C1CCCC1 [Example 34, 7-Cyclopentyl-2-[5-(4-methanesulfonyl-piperazin-1-ylmethyl)-pyridin-2-ylamino]-7H-pyrrolo[2,3-d]pyrimidine-6-carboxylic acid dimethylamide]",< 4.82,< 4.82,6.00 to 7.00,–,–,–
"CN(C)C(=O)c1cc2cnc(Nc3ccc(N4CCN(CCC#N)CC4)cn3)nc2n1C1CCCC1 [Example 9, 2-{5-[4-(2-Cyano-ethyl)-piperazin-1-yl]-pyridin-2-ylamino}-7-cyclopentyl-7H-pyrrolo[2,3-d]pyrimidine-6-carboxylic acid dimethylamide]",< 4.82,< 4.82,7.00 to 8.00,–,–,–
"CC1CN(Cc2ccc(Nc3ncc4cc(C(=O)N(C)C)n(C5CCCC5)c4n3)nc2)CCN1 (stereo not drawn) [Example 54, 7-Cyclopentyl-2-[5-(3-methyl-piperazin-1-ylmethyl)-pyridin-2-ylamino]-7H-pyrrolo[2,3-d]pyrimidine-6-carboxylic acid dimethylamide]",< 4.82,< 4.82,7.00 to 8.00,–,–,–

# More lines, now with the values ahead:
pIC50 [1],pIC50 [2],pIC50 [3],"IC50 ([1]; Table 4, read-out: IC50 (μM) CDK2) [µM]","IC50 ([2]; Table 4, read-out: IC50 (μM) CDK1) [µM]","IC50 ([3]; Table 4, read-out: IC50 (μM) CDK4) [µM]",Compound
< 4.82,< 4.82,6.00 to 7.00,–,–,–,"C[C@H]1CN(c2ccc(Nc3ncc4cc(C(=O)N(C)C)n(C5CCCC5)c4n3)nc2)CCN1C(=O)OC(C)(C)C [Example 31, (S)-4-[6-(7-Cyclopentyl-6-dimethylcarbamoyl-7H-pyrrolo[2,3-d]pyrimidin-2-ylamino)-pyridin-3-yl]-2-methyl-piperazine-1-carboxylic acid tert-butyl ester]"
< 4.82,< 4.82,7.00 to 8.00,–,–,–,"CC(C)N1CCC(c2ccc(Nc3ncc4cc(C(=O)N(C)C)n(C5CCCC5)c4n3)nc2)CC1 [Example 80, 7-Cyclopentyl-2-(1′-isopropyl-1′,2′,3′,4′,5′,6′-hexahydro-[3,4′]bipyridinyl-6-ylamino)-7H-pyrrolo[2,3-d]pyrimidine-6-carboxylic acid dimethylamide]"
< 4.82,< 4.82,6.00 to 7.00,–,–,–,"C[C@@H]1CN(c2ccc(Nc3ncc4cc(C(=O)N(C)C)n(C5CCCC5)c4n3)nc2)CCN1C(=O)OC(C)(C)C [Example 30, (R)-4-[6-(7-Cyclopentyl-6-dimethylcarbamoyl-7H-pyrrolo[2,3-d]pyrimidin-2-ylamino)-pyridin-3-yl]-2-methyl-piperazine-1-carboxylic acid tert-butyl ester]"
< 4.82,< 4.82,7.00 to 8.00,–,–,–,"CC(C(=O)O)N1CCN(c2ccc(Nc3ncc4cc(C(=O)N(C)C)n(C5CCCC5)c4n3)nc2)CC1 (stereo not drawn) [Example 103, 2-{4-[6-(7-Cyclopentyl-6-dimethylcarbamoyl-7H-pyrrolo[2,3-d]pyrimidin-2-ylamino)-pyridin-3-yl]-piperazin-1-yl}-propionic acid]"
< 4.82,< 4.82,7.00 to 8.00,–,–,–,"C[C@H](CO)NCc1ccc(Nc2ncc3cc(C(=O)N(C)C)n(C4CCCC4)c3n2)nc1 [Example 66, 7-Cyclopentyl-2-{5-[((R)-2-hydroxy-1-methyl-ethylamino)-methyl]-pyridin-2 lamino}-7H-pyrrolo[2,3-d]pyrimidine-6-carboxylic acid dimethylamide]"
< 4.82,< 4.82,7.00 to 8.00,–,–,–,"CN(C)C(=O)c1cc2cnc(Nc3ccc(N4CCN(CC5CCCCC5)CC4)cn3)nc2n1C1CCCC1 [Example 69, 2-[5-(4-Cyclohexylmethyl-piperazin-1-yl)-pyridin-2-ylamino]-7-cyclopentyl-7H-pyrrolo[2,3-d]pyrimidine-6-carboxylic acid dimethylamide]"
5.54,5.33,7.00 to 8.00,–,–,–,"CN(C)C(=O)c1cc2cnc(Nc3ccc(N4CCC(CCO)CC4)cn3)nc2n1C1CCCC1 [Example 35, 7-Cyclopentyl-2-[4-(2-hydroxy-ethyl)-3,4,5,6-tetrahydro-2H-[1,3′]bipyridinyl-6′-ylamino]-7H-pyrrolo[2,3-d]pyrimidine-6-carboxylic acid dimethylamide]"
5.46,5.89,8.00 to 9.00,–,–,–,"c1ncc(-c2cc3cnc(Nc4ccc(N5CCNCC5)cn4)nc3n2C2CCCC2)o1 [Example 11, (7-Cyclopentyl-6-oxazol-5-yl-7H-pyrrolo[2,3-d]pyrimidin-2-yl)-(5-piperazin-1-yl-pyridin-2-yl)-amine]"
